The values that follow are results of earlier work, collected in patent publication US10500190B1, “Sublingual or buccal administration of melatonin and/or valerian” (priority 2019, dated 2019).

Test in data set [1]: not given
This is another data set of the same source.

With `COc1ccc2[nH]cc(CCNC(C)=O)c2c1` [melatonin, N-acetyl-5-methoxytrypta mine], the “solubility in water or other aqueous biological fluids” value is on record as “poorly soluble”. In addition, the “variation of peak plasma concentrations” value in data set [1] (oral) is recorded as “over 20 fold”. Moreover, the “time after administration for the blood plasma concentration of melatonin to reach its peak” value in data set [1] (oral preparations) was “more than 30 minutes”.
